Values quoted from earlier work in patent US12115245B2 (Xiamen University, priority 2019, dated 2024).
Where a SMILES comes first, the peptide text is derived from it.

Row | Compound | solubility in water / aqueous solutions
1 | C[C@H](N)C(=O)N[C@@H](CCC(N)=O)C(=O)O [Ala-Gln, L-alanyl-L-glutamine] (H-Ala-Gln-OH) | very soluble in water
2 | NC(=O)CC[C@H](N)C(=O)O [Gln, Glutamine] | low solubility in aqueous solutions
